From ChEMBL document CHEMBL4052715, “Discovery of novel DAPY-IAS hybrid derivatives as potential HIV-1 inhibitors using molecular hybridization based on crystallographic overlays” (Bioorg Med Chem, 2017)
Active and inactive are the calls of the source. No cut-off for these calls is given here.

Legend:
[1] = system: Human immunodeficiency virus 1; test: Antiviral activity against wild type HIV1 3B infected in human MT4 cells assessed as inhibition of virus-induced cytopathic effect after 5 days by MTT assay; type: functional, cell-based; conditions: Human immunodeficiency virus 1, 3B, MT4, 120 h
[2] = Cytotoxicity against human MT4 cells assessed as reduction in cell viability after 5 days by MTT assay; type: cell-based
[3] = Selectivity index, ratio of CC50 for human MT4 cells to EC50 for wild type HIV1 3B infected in human MT4 cells; type: toxicity, cell-based; conditions: read-out: Ratio CC50/EC50
[4] = system: Human immunodeficiency virus 1; test: Antiviral activity against HIV1 RES056 harboring reverse transcriptase K103N/Y181C double mutant infected in human MT4 cells assessed as inhibition of virus-induced cytopathic effect after 5 days by MTT assay; type: functional, cell-based
[5] = system: Human immunodeficiency virus 2; test: Antiviral activity against HIV2 ROD harboring reverse transcriptase K103N/Y181C double mutant infected in human MT4 cells assessed as inhibition of virus-induced cytopathic effect after 5 days by MTT assay; type: functional, cell-based; conditions: ISOLATE ROD
[6] = system: Human immunodeficiency virus 1; test: Inhibition of recombinant wild type HIV1 reverse transcriptase assessed as reduction in biotin-dUTP incorporation at 50 uM using poly(A)/oligo(dT)15 as template/primer by ELISA relative to control

SMILES | EC50 [1] [µM] | CC50 at 120 h [2] [µM] | selectivity ratio [3] | inhibition [4] | inhibition [5] | inhibition [6] [%]
Cc1cc(C)c(S(=O)(=O)Nc2ccnc(Nc3ccc(C#N)cc3)c2)c(C)c1 | 6.08 | 22.2 | 4 | inactive | inactive | –
N#Cc1ccc(Nc2cc(NS(=O)(=O)c3ccc(C(F)(F)F)cc3)ccn2)cc1 | > 28 | 28 | < 1 | inactive | inactive | –
N#Cc1ccc(Nc2cc(NS(=O)(=O)c3ccc(F)cc3)ccn2)cc1 | > 6.12 | 6.12 | < 1 | inactive | inactive | –
CC(C)c1cc(C(C)C)c(S(=O)(=O)Nc2ccnc(Nc3ccc(C#N)cc3)c2)c(C(C)C)c1 | > 11.5 | 11.5 | < 1 | inactive | inactive | –
Cc1ccc(S(=O)(=O)Nc2ccnc(Nc3ccc(C#N)cc3)c2)cc1 | 1.48 | 14 | 9 | inactive | inactive | 5.7
N#Cc1ccc(Nc2cc(NS(=O)(=O)c3cc(C(F)(F)F)cc(C(F)(F)F)c3)ccn2)cc1 | > 62.2 | 62.2 | < 1 | inactive | inactive | –
N#Cc1ccc(Nc2cc(NS(=O)(=O)c3ccc4ccccc4c3)ccn2)cc1 | > 30 | 30 | < 1 | inactive | inactive | –
Cc1ccc(S(=O)(=O)Nc2ccnc(Nc3ccc(C#N)cc3)n2)cc1 | 1.61 | 130 | 80 | inactive | inactive | 41.5
N#Cc1ccc(Nc2nccc(NS(=O)(=O)c3cc(C(F)(F)F)cc(C(F)(F)F)c3)n2)cc1 | > 115 | 115 | < 1 | inactive | inactive | –
Cc1cc(C#N)cc(C)c1Oc1nc(Nc2ccc(C#N)cc2)nc(N)c1Br [ETRAVIRINE] | 0.004 | 2.15 | 541 | – | – | 93.3
CC(C)c1cc(C(C)C)c(S(=O)(=O)Nc2ccnc(Nc3ccc(C#N)cc3)n2)c(C(C)C)c1 | > 17.4 | 17.4 | < 1 | inactive | inactive | –
N#Cc1ccc(Nc2nccc(NS(=O)(=O)c3ccc(F)cc3)n2)cc1 | ≥ 9.05 | 36.6 | ≤ 4 | inactive | inactive | –
Nc1ccn([C@@H]2CS[C@H](CO)O2)c(=O)n1 [LAMIVUDINE] | 2.54 | > 87.2 | > 34 | – | – | –
O=c1[nH]cnc2c1ncn2[C@H]1CC[C@@H](CO)O1 [DIDANOSINE] | 76 | > 212 | > 3 | – | – | –
N#Cc1ccc(Nc2nccc(NS(=O)(=O)c3ccc(C(F)(F)F)cc3)n2)cc1 | > 54.7 | 54.7 | < 1 | inactive | inactive | –
N#Cc1ccc(Nc2cc(NS(=O)(=O)c3ccc(C#N)cc3)ccn2)cc1 | > 93.4 | 93.4 | < 1 | inactive | inactive | –
N#Cc1ccc(Nc2nccc(NS(=O)(=O)c3ccc(C#N)cc3)n2)cc1 | 39.4 | 159 | 4 | inactive | inactive | –
Cc1cc(C)c(S(=O)(=O)Nc2ccnc(Nc3ccc(C#N)cc3)n2)c(C)c1 | > 4.4 | 4.4 | < 1 | inactive | inactive | –
Cc1ccnc2c1NC(=O)c1cccnc1N2C1CC1 | – | – | – | – | – | 88
N#Cc1ccc(Nc2nccc(NS(=O)(=O)c3cc(F)cc(F)c3)n2)cc1 | 47 | 93.9 | 2 | inactive | inactive | –
N#Cc1ccc(Nc2cc(NS(=O)(=O)c3cc(F)cc(F)c3)ccn2)cc1 | > 28.6 | 28.6 | < 1 | inactive | inactive | –
Cc1cc(C)cc(S(=O)(=O)c2c(C(N)=O)[nH]c3ccc(Cl)cc23)c1 | 0.0026 | 11 | 4260 | – | – | –
CC(C)(C)c1ccc(S(=O)(=O)Nc2ccnc(Nc3ccc(C#N)cc3)n2)cc1 | 7.52 | 30.3 | 4 | inactive | inactive | –
Cc1cc(C)cc(S(=O)(=O)Nc2ccnc(Nc3ccc(C#N)cc3)n2)c1 | 6.21 | 173 | 28 | inactive | inactive | –
CC(C)(C)c1ccc(S(=O)(=O)Nc2ccnc(Nc3ccc(C#N)cc3)c2)cc1 | 4.92 | 29.3 | 6 | inactive | inactive | –
Cc1cc(C)cc(S(=O)(=O)Nc2ccnc(Nc3ccc(C#N)cc3)c2)c1 | > 5.06 | 5.06 | < 1 | inactive | inactive | –
N#Cc1ccc(Nc2nccc(NS(=O)(=O)c3ccc4ccccc4c3)n2)cc1 | 48.9 | 77.1 | 2 | inactive | inactive | –
